{
  "source": "ChEMBL document CHEMBL3576778",
  "about": "“Structure-Activity Relationship Studies of a Series of Semisynthetic Lipopeptides Leading to the Discovery of Surotomycin, a Novel Cyclic Lipopeptide Being Developed for the Treatment of Clostridium difficile-Associated Diarrhea” (J Med Chem, 2015)",
  "format_in_all_cases": "functional",
  "key": {"[1]": {"system": "Staphylococcus aureus", "experiment": "Potency index, ratio of MIC for daptomycin to MIC for test compound against daptomycin-non-susceptible Staphylococcus aureus 1616 incubated anaerobically at 37 degC for 48 hrs by agar dilution method"}, "[2]": {"system": "Clostridioides difficile", "experiment": "Antimicrobial activity against vancomycin-resistant Clostridium difficile"}, "[3]": {"system": "Staphylococcus aureus", "experiment": "Potency index, ratio of MIC for daptomycin to MIC for test compound against daptomycin-non-susceptible Staphylococcus aureus 5006 incubated anaerobically at 37 degC for 48 hrs by agar dilution method"}, "[4]": {"system": "Staphylococcus aureus", "experiment": "Antimicrobial activity against daptomycin-non-susceptible Staphylococcus aureus 5030 incubated anaerobically at 37 degC for 48 hrs by agar dilution method", "conditions": "Staphylococcus aureus, 5030, 48 h"}, "[5]": {"system": "Staphylococcus aureus", "experiment": "Antimicrobial activity against daptomycin-non-susceptible Staphylococcus aureus 5033 incubated anaerobically at 37 degC for 48 hrs by agar dilution method", "conditions": "Staphylococcus aureus, 5033, 48 h"}, "[6]": {"system": "Clostridioides difficile", "experiment": "Potency index, ratio of MIC for daptomycin to MIC for test compound against daptomycin-resistant Clostridium difficile NAP1 incubated anaerobically at 37 degC for 48 hrs by agar dilution method"}, "[7]": {"system": "Staphylococcus aureus", "experiment": "Potency index, ratio of MIC for daptomycin to MIC for test compound against daptomycin-non-susceptible Staphylococcus aureus 5060 incubated anaerobically at 37 degC for 48 hrs by agar dilution method"}, "[8]": {"system": "Staphylococcus aureus", "experiment": "Antimicrobial activity against daptomycin-non-susceptible Staphylococcus aureus 5063 incubated anaerobically at 37 degC for 48 hrs by agar dilution method", "conditions": "Staphylococcus aureus, 5063, 48 h"}, "[9]": {"system": "Staphylococcus aureus", "experiment": "Potency index, ratio of MIC for daptomycin to MIC for test compound against daptomycin-non-susceptible Staphylococcus aureus 399 incubated anaerobically at 37 degC for 48 hrs by agar dilution method"}, "[10]": {"system": "Staphylococcus aureus", "experiment": "Antimicrobial activity against daptomycin-non-susceptible Staphylococcus aureus 42 incubated anaerobically at 37 degC for 48 hrs by agar dilution method", "conditions": "Staphylococcus aureus, 42, 48 h"}, "[11]": {"system": "Staphylococcus aureus", "experiment": "Potency index, ratio of MIC for daptomycin to MIC for test compound against daptomycin-non-susceptible Staphylococcus aureus 5016 incubated anaerobically at 37 degC for 48 hrs by agar dilution method"}, "[12]": {"system": "Clostridioides difficile", "experiment": "Antimicrobial activity against daptomycin-resistant Clostridium difficile ATCC 43596 infected in Syrian golden hamster model of Clostridium difficile-associated diarrhea assessed as protection against microbial infection by measuring survival at day 25 to 26 at 0.5 mg/kg treated once daily for 5 consecutive days starting 4 hrs after spore inoculation"}, "[13]": {"system": "Staphylococcus aureus", "experiment": "Potency index, ratio of MIC for daptomycin to MIC for test compound against daptomycin-non-susceptible Staphylococcus aureus 1145 incubated anaerobically at 37 degC for 48 hrs by agar dilution method"}, "[14]": {"system": "Staphylococcus aureus", "experiment": "Antimicrobial activity against daptomycin-susceptible Staphylococcus aureus ATCC 29213 incubated anaerobically at 37 degC for 48 hrs by agar dilution method", "conditions": "ATCC 29213, 48 h"}, "[15]": {"system": "Enterococcus faecalis", "experiment": "Potency index, ratio of MIC for daptomycin to MIC for test compound against daptomycin-resistant Enterococcus faecalis ATCC 49452 incubated anaerobically at 37 degC for 48 hrs by agar dilution method"}, "[16]": {"system": "Staphylococcus aureus", "experiment": "Potency index, ratio of MIC for daptomycin to MIC for test compound against daptomycin-non-susceptible Staphylococcus aureus 5012 incubated anaerobically at 37 degC for 48 hrs by agar dilution method"}, "[17]": {"system": "Staphylococcus aureus", "experiment": "Antimicrobial activity against daptomycin-non-susceptible Staphylococcus aureus 5059 incubated anaerobically at 37 degC for 48 hrs by agar dilution method", "conditions": "Staphylococcus aureus, 5059, 48 h"}, "[18]": {"system": "Staphylococcus aureus", "experiment": "Potency index, ratio of MIC for daptomycin to MIC for test compound against daptomycin-non-susceptible Staphylococcus aureus 5010 incubated anaerobically at 37 degC for 48 hrs by agar dilution method"}, "[19]": {"system": "Staphylococcus aureus", "experiment": "Antimicrobial activity against daptomycin-non-susceptible Staphylococcus aureus 1616 incubated anaerobically at 37 degC for 48 hrs by agar dilution method", "conditions": "Staphylococcus aureus, 1616, 48 h"}, "[20]": {"system": "Staphylococcus aureus", "experiment": "Antimicrobial activity against daptomycin-non-susceptible Staphylococcus aureus 5081 incubated anaerobically at 37 degC for 48 hrs by agar dilution method", "conditions": "Staphylococcus aureus, 5081, 48 h"}, "[21]": {"system": "Prevotella sp.", "experiment": "Toxicity against Prevotella spp. assessed as inhibition of microbe growth"}, "[22]": {"system": "Staphylococcus aureus", "experiment": "Potency index, ratio of MIC for daptomycin to MIC for test compound against daptomycin-non-susceptible Staphylococcus aureus 278 incubated anaerobically at 37 degC for 48 hrs by agar dilution method"}, "[23]": {"system": "Staphylococcus aureus", "experiment": "Antimicrobial activity against daptomycin-non-susceptible Staphylococcus aureus 5012 incubated anaerobically at 37 degC for 48 hrs by agar dilution method", "conditions": "Staphylococcus aureus, 5012, 48 h"}, "[24]": {"system": "Staphylococcus aureus", "experiment": "Potency index, ratio of MIC for daptomycin to MIC for test compound against daptomycin-non-susceptible Staphylococcus aureus 5080 incubated anaerobically at 37 degC for 48 hrs by agar dilution method"}, "[25]": {"system": "Staphylococcus aureus", "experiment": "Antimicrobial activity against daptomycin-non-susceptible Staphylococcus aureus 5006 incubated anaerobically at 37 degC for 48 hrs by agar dilution method", "conditions": "Staphylococcus aureus, 5006, 48 h"}, "[26]": {"system": "Staphylococcus aureus", "experiment": "Potency index, ratio of MIC for daptomycin to MIC for test compound against daptomycin-non-susceptible Staphylococcus aureus 5030 incubated anaerobically at 37 degC for 48 hrs by agar dilution method"}, "[27]": {"system": "Staphylococcus aureus", "experiment": "Potency index, ratio of MIC for daptomycin to MIC for test compound against daptomycin-non-susceptible Staphylococcus aureus 5091 incubated anaerobically at 37 degC for 48 hrs by agar dilution method"}, "[28]": {"system": "Enterococcus faecium", "experiment": "Antimicrobial activity against daptomycin-resistant Enterococcus faecium ATCC 6569 incubated anaerobically at 37 degC for 48 hrs by agar dilution method", "conditions": "ATCC 6569, 48 h"}, "[29]": {"system": "Staphylococcus aureus", "experiment": "Potency index, ratio of MIC for daptomycin to MIC for test compound against daptomycin-non-susceptible Staphylococcus aureus 5063 incubated anaerobically at 37 degC for 48 hrs by agar dilution method"}, "[30]": {"system": "Staphylococcus aureus", "experiment": "Potency index, ratio of MIC for daptomycin to MIC for test compound against daptomycin-non-susceptible Staphylococcus aureus 5033 incubated anaerobically at 37 degC for 48 hrs by agar dilution method"}},
  "data": [
    {"smiles": "CCCCCc1ccc(/C(C)=C/C(=O)N[C@@H](Cc2c[nH]c3ccccc23)C(=O)N[C@H](CC(N)=O)C(=O)N[C@@H](CC(=O)O)C(=O)N[C@@H]2C(=O)NCC(=O)N[C@@H](CCCN)C(=O)N[C@@H](CC(=O)O)C(=O)N[C@H](C)C(=O)N[C@@H](CC(=O)O)C(=O)NCC(=O)N[C@H](CO)C(=O)N[C@@H]([C@@H](C)CC(=O)O)C(=O)N[C@@H](CC(=O)c3ccccc3N)C(=O)O[C@@H]2C)cc1", "values": [
      {"measurement": "Ratio", "setting": "[1]", "result": 2},
      {"measurement": "MIC", "setting": "[2]", "result": 0.125, "unit": "µg/mL"},
      {"measurement": "Ratio", "setting": "[3]", "result": 2},
      {"measurement": "MIC", "setting": "[4]", "result": 1, "unit": "µg/mL"},
      {"measurement": "MIC", "setting": "[5]", "result": 0.25, "unit": "µg/mL"},
      {"measurement": "Ratio", "setting": "[6]", "result": 4},
      {"measurement": "Ratio", "setting": "[7]", "result": 2},
      {"measurement": "MIC", "setting": "[8]", "result": 1, "unit": "µg/mL"},
      {"measurement": "Ratio", "setting": "[9]", "result": 2},
      {"measurement": "MIC", "setting": "[10]", "result": 0.125, "unit": "µg/mL"},
      {"measurement": "Ratio", "setting": "[11]", "result": 2},
      {"measurement": "survival at 0.5 mg/kg", "setting": "[12]", "result": 100, "unit": "%"},
      {"measurement": "Ratio", "setting": "[13]", "result": 2},
      {"measurement": "MIC", "setting": "[14]", "result": 0.25, "unit": "µg/mL"},
      {"measurement": "Ratio", "setting": "[15]", "result": ">8"},
      {"measurement": "Ratio", "setting": "[16]", "result": 2},
      {"measurement": "MIC", "setting": "[17]", "result": 1, "unit": "µg/mL"},
      {"measurement": "Ratio", "setting": "[18]", "result": 2},
      {"measurement": "MIC", "setting": "[19]", "result": 2, "unit": "µg/mL"},
      {"measurement": "MIC", "setting": "[20]", "result": 1, "unit": "µg/mL"},
      {"measurement": "MIC", "setting": "[21]", "result": "≥ 8190", "unit": "µg/mL"},
      {"measurement": "Ratio", "setting": "[22]", "result": 2},
      {"measurement": "MIC", "setting": "[23]", "result": 0.25, "unit": "µg/mL"},
      {"measurement": "Ratio", "setting": "[24]", "result": 2},
      {"measurement": "MIC", "setting": "[25]", "result": 0.5, "unit": "µg/mL"},
      {"measurement": "Ratio", "setting": "[26]", "result": 2},
      {"measurement": "Ratio", "setting": "[27]", "result": 2},
      {"measurement": "MIC", "setting": "[28]", "result": 4, "unit": "µg/mL"},
      {"measurement": "Ratio", "setting": "[29]", "result": 2},
      {"measurement": "Ratio", "setting": "[30]", "result": 2}
    ]}
  ]
}
